US11421194B2, “Pumpless platform for high-throughput dynamic multicellular culture and chemosensitivity evaluation” (Hackensack Meridian Health Center For Discovery and …, priority 2018, dated 2022)

System: MM.1S cells
Assay: Chemosensitivity evaluation of MM.1S cells to bortezomib in the pumpless culture platform (LIVE/DEAD in situ staining, HCS)
Type: cell-based, human
Details: 4 h treatment, 24 h recovery
Experimental: The high-throughput capability of the pumpless culture platform was evaluated by studying the response of MM.1S cells to bortezomib at four different concentrations (0 nM, 5 nM, 10 nM, 20 nM). Bortezomib is a proteasome inhibitor that induces MM cell apoptosis.^29 Before introducing MM.1S cells, OSB were dynamically cultured for 4 days (in a CO2 incubator at […]). MM.1S cells were pre-labeled with 5 μM cell trace violet (Thermo Fisher Scientific), 10 μL MM.1S with a cell density of 4 million/ml were seeded into culture chambers ([…]). The device was then placed inside a CO2 incubator at 37° C. for 4 h to let MM.1S settle prior to starting the flow. Cells were co-cultured for another 24 h, and then treated with bortezomib for 4 h. After drug treatment, the medium was changed and cultures were allowed to recover for a 24 h period before analyses were conducted. MM.1S alone, cultured in the device but under static conditions were used as control.
Cell viability after treatment and recovery was determine as described above, using LIVE/DEAD Viability/Cytotoxicity Kit (0.1 μM calcein AM & 0.1 μM EthD-1). Culture chambers were scanned using HCS (CellInsight™ CX5, Thermo Fisher Scientific). Cell trace violet^+ calcein AM^+ cells were identified as live MM.1S and cell trace violet^+ EthD-1^+ cells were identified as dead cells, using pre-design CX5 software algorithms (HCS Studio 2.0 Cell Analysis Software) for cell quantification and rapid analysis.
Data quantification was performed automatically using the HCS Studio Software. The percentage of live (cell trace violet^+ calcein AM^+ cells/cell trace violet^+ cells) and dead (cell trace violet^+EthD-1^+/cell trace violet^+ cells) MM.1S cells were plotted against bortezomib concentration.

With `CC(C)C[C@H](NC(=O)[C@H](Cc1ccccc1)NC(=O)c1cnccn1)B(O)O` [bortezomib] the viability at 0.005 µM (Homo sapiens, MM1.S, MM.1S cultured alone, static, bortezomib 5 nM, read-out: viability (percentage of live MM.1S: cell trace violet+ calcein AM+ cells/cell trace violet+ cells)) was roughly 60%, the viability at 0.01 µM (Homo sapiens, MM1.S, MM.1S cultured alone, static, bortezomib 10 nM, read-out: viability (percentage of live MM.1S: cell trace violet+ calcein AM+ cells/cell trace violet+ cells)) was roughly 15% and the “viability (percentage of live MM.1S: cell trace violet+ calcein AM+ cells/cell trace violet+ cells)” value (MM.1S in co-culture with OSB (hFOB 1.19), dynamic culture, bortezomib treatment range 0 nM to 10 nM) was roughly 70%.
